According to patent US5116974A, “3-carbalkoxyamino-5-aminoacyl-5H-dibenz[b,f]azepines, and methods for making” (Arzneimittelwerk Dresden GmbH, priority 1989, dated 1992):

Experiments:
[1] = tested on: aconitine arrhythmia in female Wistar rats; format: in vivo, rat (female Wistar); details: for ED73 i.v. (aconitine, rat): dose which inhibits aconitine arrhythmia up to the occurrence of isolated ventricular extrasystoles: female Wistar rats, Probit regression, confidence interval p=0.05 in parentheses; for Q = LD50 i.v./ED73 i.v. (therapeutic breadth): rat, ratio of LD50 to ED73 (aconitine model)
Procedure: ED73 i.v. =the dose in mg/kg, which inhibits aconitine arrhythmia in female Wistar rats after i.v. administration of the test substance up to the occurrence of isolated ventricular extrasystolea (K. Femmer et al., Pharmazie 31, page 36 (1976). The data is analyzed by the Probit regression analysis with a confidence interval of p=0.05 (values given in parentheses).

[2] = in vivo; details: rat, iv, male or female Wistar rats, i.v. tail vein, Probit regression, confidence interval p=0.05 in parentheses, read-out: LD50 i.v. (acute tox., rat)
From the text: LD50 i.v. =lethal dose in mg/kg for 50% of the experimental animals of an orientating acute toxicity test on male or female Wistar rats of our own breed, i.v. administration in the tail vein, 3-4 dosages, 10 animals per group. Data analyzed by the Probit regression analysis with a confidence interval of p=0.05 (values given in parentheses).

[3] = Solubility; format: physicochemical
[4] = tested on: dogs, 24 hours after a 2-step coronary ligature; assay: 2-step coronary ligature in dogs (Harris model); format: in vivo, dog
From the text: It is also emphasized that, in comparative investigations of the 2-step coronary ligature in dogs (Harris model), the new compounds of formula I have an advantageously sustained duration of action (see Table 1).

| SMILES | ED73 i.v. (aconitine, rat): dose which inhibits aconitine arrhythmia up to the occurrence of isolated ventricular extrasystoles [1] | Q = LD50 i.v./ED73 i.v. (therapeutic breadth) [1] | LD50 [2] | solubility of the base in dilute acids (in words) [3] | duration of action (dog, Harris) ([4]; at eff. dose 2.0 mg/kg i.v.) | duration of action (dog, Harris) ([4]; at eff. dose 1.0 mg/kg i.v.) | duration of action (dog, Harris) ([4]; at eff. dose 6.0 mg/kg i.v.) |
| --- | --- | --- | --- | --- | --- | --- | --- |
| CCCCNCC(=O)N1c2ccccc2CCc2ccc(NC(=O)OCC)cc21 [No. 7, 3-carbethoxyamino-5-n-butylamino-acetyl-10,11-dihydro-5H-dibenz[b,f]azepin] | 0.29 mg/kg | 17 | 5 mg/kg | – | – | – | – |
| CC(C)OC(=O)Nc1ccc2c(c1)N(C(=O)CNCCO)c1ccccc1CC2 [No. 12] | 0.51 mg/kg | 39 | 20 mg/kg | – | – | – | – |
| CNCC(=O)N1c2ccccc2CCc2ccc(NC(=O)OC(C)C)cc21 [No. 11] | 0.61 mg/kg | 25 | 15 mg/kg | – | – | – | – |
| CCOC(=O)Nc1ccc2c(c1)N(C(=O)CNCc1ccccc1)c1ccccc1CC2 [No. 1, 3-carbethoxyamino-b 5-benzylaminoacetyl-10,11-dihydro-5H-dibenz[b,f]azepine] | 0.79 (0.53-1.2) mg/kg | 16 | 13 mg/kg | not very soluble in dilute acids | – | – | – |
| CC(C)OC(=O)Nc1ccc2c(c1)N(C(=O)CNC(C)(C)C)c1ccccc1CC2 [No. 14] | 0.18 mg/kg | – | – | – | – | – | – |
| CCOC(=O)Nc1ccc2c(c1)N(C(=O)CNC)c1ccccc1C=C2 [No. 19] | 0.32 mg/kg | 34 | 11 mg/kg | – | – | – | – |
| CCOC(=O)Nc1ccc2c(c1)N(C(=O)CNC(C)C)c1ccccc1CC2 [No. 4, 3-carbethoxyamino-5-isopropylamino-acetyl-10,11-dihydro-5H-dibenz[b,f]azepine] | 0.71 mg/kg | 12 | 8.2 mg/kg | – | – | – | – |
| COC(=O)Nc1ccc2c(c1)N(C(=O)CNCCO)c1ccccc1CC2 [No. 16] | 0.40 mg/kg | 90 | 36 mg/kg | – | – | – | – |
| CNCC(=O)N1c2ccccc2CCc2ccc(NC(=O)OC)cc21 [No. 15] | 0.30 mg/kg | 67 | 20 mg/kg | – | 15 min | – | – |
| CCOC(=O)Nc1ccc2c(c1)N(C(=O)CCN1CCOCC1)c1ccccc1S2 [Morazicine, morazicine, reference compound] | 1.1 mg/kg | 10 | 11 mg/kg | – | 15 min | – | – |
| CCCCCCNCC(=O)N1c2ccccc2CCc2ccc(NC(=O)OCC)cc21 [No. 9] | 0.90 mg/kg | 16 | 14 mg/kg | – | – | – | – |
| Cc1cccc(C)c1OCC(C)N (stereo not shown) [Mexiletin, mexiletin, reference compound] | 15 mg/kg | – | 41 mg/kg | – | – | – | – |
| CCOC(=O)Nc1ccc2c(c1)N(C(=O)CNC1CCCCC1)c1ccccc1CC2 [No. 8, 3-carbethoxyamino-5-cyclohexylamino-acetyl-10,11-dihydro-5H-dibenz[b,f]azepine] | 0.25 mg/kg | 15 | 3.7 mg/kg | – | – | – | – |
| CCCNCC(=O)N1c2ccccc2CCc2ccc(NC(=O)OCC)cc21 [No. 5, 3-carbethoxyamino-5-n-propylamino-acetyl-10,11-dihydro-5H-dibenz[b,f]azepine] | 0.18 mg/kg | 34 | 6.1 mg/kg | – | – | – | – |
| CCOC(=O)Nc1ccc2c(c1)N(C(=O)CN)c1ccccc1CC2 [No. 10, 3-carbethoxyamino-5-amino-acetyl-10,11-dihydro-5H-dibenz[b,f]azepine] | 0.20 mg/kg | 70 | 14 mg/kg | – | – | – | – |
| CCOC(=O)Nc1ccc2c(c1)N(C(=O)CNC(C)c1ccccc1)c1ccccc1CC2 (stereo not drawn) [No. 22, 3-carbethoxyamino-5-(α-phenylethylamino)-acetyl-10,11-dihydro-5H-dibenz[b,f]azepine] | 3.5 mg/kg | 9 | 31 mg/kg | – | – | – | – |
| CCNCCC(=O)N1c2ccccc2CCc2ccc(NC(=O)OCC)cc21 [No. 21, 3-carbethoxyamino-5-(β-ethylaminopropionyl)-10,11-dihydro-5H-dibenz[b,f]azepine] | 0.42 mg/kg | 29 | 12 mg/kg | – | – | – | – |
| CCOC(=O)Nc1ccc2c(c1)N(C(=O)CCNCCO)c1ccccc1CC2 [No. 18] | 0.85 mg/kg | 24 | 20 mg/kg | – | 60 min | – | – |
| CCNCC(=O)N1c2ccccc2CCc2ccc(NC(=O)OCC)cc21 [No. 3] | 0.09 mg/kg | 107 | 9.6 mg/kg | – | 180 min | 60 min | – |
| CCNCC(=O)N1c2ccccc2C=Cc2ccc(NC(=O)OCC)cc21 [No. 20, 3-carbethoxyamino-5-ethylamino-acetyl-acetyl-5H-dibenz[b,f]azepine] | 0.40 mg/kg | 15 | 6.2 mg/kg | – | – | – | – |
| CCN(CC)CC(=O)Nc1c(C)cccc1C [Lidocaine, lidocaine, reference compound] | – | – | – | – | – | – | 10 min |
| CCOC(=O)Nc1ccc2c(c1)N(C(=O)CNCCO)c1ccccc1CC2 [No. 2, 3-carbethoxyamino-5-(beta-oxyethylamino)acetyl-10,11-dihydro-5H-dibenz[b,f]azepine] | 0.19 mg/kg | 63 | 12 mg/kg | – | 60 min | – | – |
| CCNCC(=O)N1c2ccccc2CCc2ccc(NC(=O)OC)cc21 [No. 17] | 0.95 mg/kg | 20 | 19 mg/kg | – | 15 min | – | – |
| CCOC(=O)Nc1ccc2c(c1)N(C(=O)CN(C)C)c1ccccc1CC2 [Bonnecor ®, 3-carbethoxyamino-5-dimethylaminoacetyl-10,11-dihydro-5H-dibenz[b,f]azepine, reference compound] | 0.28 mg/kg | 39 | 11 mg/kg | – | 15 min | – | – |
| CCNCC(=O)N1c2ccccc2CCc2ccc(NC(=O)OC(C)C)cc21 [No. 13, 3-carbisopropoxyamino-5-ethylamino-acetyl-10,11-dihydro-5H-dibenz[b,f]azepine] | 0.47 mg/kg | 34 | 16 mg/kg | – | – | – | – |
| CCOC(=O)Nc1ccc2c(c1)N(C(=O)CNC(C)(C)C)c1ccccc1CC2 [No. 6, 3-carbethoxyamino-5-tertiary-butylamino-acetyl-10,11-dihydro-5H-dibenz[b,f]azepine] | 0.35 mg/kg | 16 | 5.6 mg/kg | – | – | – | – |
